In patent publication US7786129B2, “Piperazine derivatives of dialkyl oxindoles” (Egis Gyogyszergyar Nyrt, priority 2004, dated 2010):
pIC50: −log10 of the molar value. Where a name gives a salt, the structure may show the parent alone. Marks after values point to notes of the source that are not given here.

Key:
[1] = test system: Male Wistar rats; assay: Vogel's drinking conflict test; format: in vivo; details: ip, 0.5 h, rat, i.p. 30 min prior to test, increase in tolerated shocks, read-out: MED
Method: (§1) The anxiolytic effect of the compounds according to the invention was investigated on rats according to Vogel's drinking conflict test and elevated plus-maze test (S. Pelow, P. Chopin, S. E. File, J. Briley: Neurosci. Methods 14, p. 149 (1985)).
Male Wistar rats weighing 160-180 g were used for the experiment. The animals were deprived of drinking water for 48 hours and fasted for 24 hours prior to test. The test compounds or vehicle were administered intraperitoneally, 30 min prior to test. […] Following every 20 licks electric shocks (0.7 mA) were applied through the drinking spout during the 5 min test period. The number of punished licks were recorded. The effect of the test compounds was expressed as % increase in numbers of tolerated shocks. Minimal effective doses (MED) were determined for each compound.

[2] = test system: dopamine release in the internal ear of guinea pig; assay: Dopamine release in the internal ear (cochlear preparations, oxygen and glucose deprivation); details: guinea pig cochlear preparation, second stimulation after oxygen and glucose deprivation, FIG. 1
Method: The study of the effect on the hearing impairment and tinnitus were performed in guinea pigs weighing 145-375 g (Toxicoop, Hungary) according to the method of Gáboiján et al. (Gáboiján, A., Lendvai, B, Vizi, E. S.: Neuroscience 90, p. 131 (1999)). The dopamine release in the internal ear, as a correlate of hearing impairment, was measured in samples from cochlear preparations (lateral olivocochlear efferents) with high-pressure liquid chromatography (HPLC). The samples were collected in every 3 minutes during 60 minutes (20 fractions). Electric field stimulation was generally applied during the 3rd and 13th fraction (S1, S2, 2 Hz, 360 shocks, 60 V; Grass Medical Instruments). In the respective experiments ischemia (oxygen and glucose deprivation, OGD) was mimicked by the perfusion of a buffer saturated with 100% N2 and containing sacharose instead of glucose. Results are expressed as a percent of dopamine release per fraction. Statistical analysis was performed by analysis of variance (ANOVA) followed by Tukey test.
From the thus-obtained results the effect of the compound of Example 76 on the dopamine release in the internal ear of guinea pig is shown (FIG. 1). The initial stimulation (SI) evoked considerable dopamine release. […] This effect can be interpreted as an inhibition of hearing impairment.

[3] = test system: Male Mongolian gerbils; assay: Neuroprotective effect in global ischemia test (bilateral carotid occlusion); format: in vivo, Mongolian gerbil; details: gerbil; for Effect (%): change of CA1 cell loss score vs. control, 30 mg/kg i.p.; for CA1 cell loss (score): 30 mg/kg i.p. 45 min after surgery, scored 4 days after surgery on 6-point scale
Method: Male Mongolian gerbils weighing 60-90 g were used as test animals. The test compounds were administered intraperitoneally at a dose of 30 mg/kg 45 min after surgery. Test substances were suspended in 0.4% methylcellulose solution. In diethylether narcosis, the right and left common carotid arteries were exposed through an anterior midline cervical incision and isolated from the vagus nerves and the surrounding tissues. Full arrest of carotid blood flow was achieved by tightening an aneurysm clip for 3 min. During surgery the body temperature of the animals was kept at the individual preoperative level (37.5±0.5° C.) with the help of a heating pad and a heating lamp.
4 days after the surgery the animals were anaesthetized with 60 mg/kg i.p nembutal (10 ml/kg) and perfused through the heart first with saline then with a fixative solution containing 0.1% glutaraldehyde, 4% paraformaldehyde and 0.2% picric acid in 0.1 M phosphate buffer (pH 7.4) for 30 min. The brain was removed from the skull and post fixed for at least 1 week at 4° C. in the same fixative solution.
Alternate coronal sections of 60 μm thickness were cut from different levels of the dorsal hippocampus by a microtome. The sections were repeatedly washed in 0.1 M phosphate buffer (pH 7.4) and stained by silver impregnation. The sections were stored twice in a preparatory solution (2% sodium hydroxide and 0.875% ammonium hydroxide solution) for 5 minutes, impregnated for 10 minutes in 0.875% ammonium hydroxide and 0.5% silver nitrate solution) and placed into a washing solution (0.5% sodium carbonate and 0.01% ammonium nitrate dissolved in a 29.1% aqueous ethanol solution) twice for 2 minutes and once for one minute. The slices were then developed in 9.9% ethanol solution containing 1.5% formaldehyde and 0.01% ammonium nitrate and fixed three times for 3 minutes in a 0.5% acetic acid solution. The stained slices were placed in 0.1M phosphate buffer (pH 7.4) and chrome gelatine, applied on plates, dehydrated and treated with xylol. The cover plates were fixed with DPX glue (Fluka).
The sections were examined under light microscopy and the overall neuronal damage in the hippocampal CA1 subfield in both hippocampi was scored on a 6-point scale: (O) undamaged, (1)—0-10%; (2)—10-30%; (3)—30-50%; (4)—50-70%; (5)—70-90%; (6)—90-100% cell loss. Group differences between drug-treated and vehicle-treated groups were statistically analysed by Mann-Whitney U-test.

[4] = molecular target: T1, 5-HT1A receptor (Rattus norvegicus, UniProt P19327); assay: 5-HT1A receptor binding; details: rat frontal cortex preparation, ligand tritiated 8-OH-DPAT
T1 construct: from tissue; host or cells: rat frontal cortex membrane preparation
T1 sequence (P19327 1-422): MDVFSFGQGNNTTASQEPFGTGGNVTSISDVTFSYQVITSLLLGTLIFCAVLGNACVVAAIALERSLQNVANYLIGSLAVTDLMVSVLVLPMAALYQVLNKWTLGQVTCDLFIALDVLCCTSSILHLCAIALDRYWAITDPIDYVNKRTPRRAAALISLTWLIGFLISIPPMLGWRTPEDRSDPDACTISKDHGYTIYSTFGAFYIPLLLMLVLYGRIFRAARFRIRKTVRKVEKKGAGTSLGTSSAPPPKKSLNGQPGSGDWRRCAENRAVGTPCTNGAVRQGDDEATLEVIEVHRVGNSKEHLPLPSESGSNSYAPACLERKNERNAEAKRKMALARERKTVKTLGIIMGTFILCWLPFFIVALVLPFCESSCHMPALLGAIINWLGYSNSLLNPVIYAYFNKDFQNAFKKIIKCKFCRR
Method: (§2) Receptor bindings—with the exception of the 5-HT2C receptor binding—were determined by using cerebral region preparations of male Wistar rats weighing 120-200 g. For the preparation of 5-HT1A receptor binding frontal cortex preparations were used. The al receptor binding studies were performed from isolated frontal cortex pre-parations. For the 5-HT2C receptor binding experiments choroid plexus of pigs was used. The protein contents of membrane preparations were determined by the method of Lowry (1951).
5-HT1A receptor binding was measured according to the method of Peroutka (Peroutka, S. J.: J. Neurochem. 47, p. 529 (1986)). The ligand was tritiated 8-hydroxy-N,N-dipropyl-2-aminotetraline (8-OH-DPAT). For the determination of non-specific binding 10 μM serotonin was applied. Incubation […] volume was 250 μl. Incubation was carried out at a temperature of 25 C for 30 minutes. The reaction was terminated by the addition of 9 ml of ice-cold 50 mM TRIS-HCl (pH 7.7) buffer and quick vacuum filtration using Whatman GFIB fibreglass filtering paper. Radioactivity of the filter boards was measured by liquid scintillation spectrometry.
(§3) The IC50 value is the value of concentration where the difference between total and non-specific binding is 50% in the presence of a determined concentration of a specific ligand.

[5] = molecular target: T2, 5-HT2C receptor (Sus scrofa, UniProt K7GSR7); assay: 5-HT2C receptor binding; parameters: species or system pig; details: choroid plexus of pigs, ligand 3H-mesulergin 1.0 nM
T2 construct: from tissue; host or cells: pig choroid plexus membrane preparation
T2 sequence (K7GSR7 1-457): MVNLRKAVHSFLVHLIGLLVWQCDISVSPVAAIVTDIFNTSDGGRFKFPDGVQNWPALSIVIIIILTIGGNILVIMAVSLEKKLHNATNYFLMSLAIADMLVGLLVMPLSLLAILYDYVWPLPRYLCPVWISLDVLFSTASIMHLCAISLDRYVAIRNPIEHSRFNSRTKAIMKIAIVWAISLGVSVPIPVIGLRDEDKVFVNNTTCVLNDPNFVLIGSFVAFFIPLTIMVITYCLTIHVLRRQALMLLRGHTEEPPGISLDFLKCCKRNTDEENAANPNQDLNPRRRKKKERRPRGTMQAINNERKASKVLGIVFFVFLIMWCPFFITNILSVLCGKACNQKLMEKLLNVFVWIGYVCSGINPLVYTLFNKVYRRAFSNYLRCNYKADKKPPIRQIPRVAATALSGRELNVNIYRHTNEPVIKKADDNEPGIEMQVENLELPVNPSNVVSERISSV
Method: as §2
(§4) In the course of 5-HT2C and α1 receptor binding experiments the ligands were ^3H-mesulergin (1.0 nM) and ^3H-prazosine (0.3 nM), respectively. The non-specifically binding ligands were mianserine (1 μM and prazosine (1 μM), respectively.
as §3

[6] = molecular target: α1 receptor; assay: α1 receptor binding experiment; details: rat isolated frontal cortex preparation, ligand 3H-prazosine 0.3 nM
Method: as §2, §4, §3

[7] = test system: Male Sprague-Dawley rats; assay: Elevated plus-maze test in rats; format: in vivo; details: minimal effective dose, rat, p.o., 60 min after treatment, time in or entries into open arms
From the text: as §1
A wooden cross elevated to 50 cm above the floor, 15 cm wide with 100 cm long arms was used for the experiments. The sides and ends of two opposite arms of the cross were equipped with 40 cm high walls, however, the arms were open to the 15×15 cm central area (closed arms). The two other opposite arms were not encircled by walls (open arms).
Male Sprague-Dawley rats weighing 200-220 g were used for the experiments. The animals were placed in the central area of the equipment 60 min after treatment and the following four parameters have been observed for the 5 min test time: • time spent in the open arms (sec), • time spent in the closed arms (see), • number of entries into the open arms, • number of entries into the closed arms.
The effect was expressed as percent increase in either the time spent in the open arms or number of entries into the open arms. MEDs (minimal effective doses) were determined for each compound.

Structure (SMILES) | melting point [°C] | pIC50 [4] | pIC50 [5] | pIC50 [6] | minimal effective dose [1] [mg/kg] | dopamine release in the internal ear [2] | Effect (%) [3] [%] | CA1 cell loss (score) [3] | MED [7] [mg/kg p.o.]
CCC1(CCCCN2CCN(c3cccc(Cl)c3)CC2)C(=O)Nc2ccc(F)cc21 (stereo not drawn) [Example 85, 3-{4-[4-(3-Chlorophenyl)-piperazin-1-yl]-butyl}-3-ethyl-5-fluoro-1,3-dihydro-2H-indol-2-one mono-hydrochloride] |  |  |  |  | 5 |  | −46 | 2.70* score | 0.1
CCC1(CCCCN2CCN(c3ccc(Cl)cc3)CC2)C(=O)Nc2c(Cl)cc(Cl)cc21 (stereo not drawn) [Example 87, 5,7-Dichloro-3-{4-[4-(4-chlorophenyl)-piperazin-1-yl]-butyl}-3-ethyl-1,3-dihydro-2H-indol-2-one] | 152 to 154 | < 6.40 |  |  | 5 |  |  |  | 0.3
CCC1(CCCCN2CCN(c3ccc(F)cc3)CC2)C(=O)Nc2ccccc21 (stereo not drawn) [Example 95, 3-Ethyl-3-{4-[4-(4-fluorophenyl)-piperazin-1-yl]-butyl}-1,3-dihydro-2H-indol-2-one] | 118 to 119 | < 6.52 |  |  | 10 |  |  |  | 0.1

The next lines start with results.

melting point [°C] | pIC50 [4] | pIC50 [5] | pIC50 [6] | Structure (SMILES) | minimal effective dose [1] [mg/kg] | dopamine release in the internal ear [2] | Effect (%) [3] [%] | CA1 cell loss (score) [3] | MED [7] [mg/kg p.o.]
145 to 146 |  |  |  | CCC1(CCCCN2CCN(c3ccc(Cl)cc3)CC2)C(=O)Nc2ccccc21 (stereo not drawn) [Example 76, 3-{4-[4-(4-Chlorophenyl)-piperazin-1-yl]-butyl}-3-ethyl-1,3-dihydro-2H-indol-2-one] | 10 | the release stabilized at a significantly higher level | −52 | 2.40* score | 
142 to 144 | < 6.70 | > 7.00 | > 7.00 | CCC1(CCCCN2CCN(c3cccc(Cl)c3)CC2)C(=O)Nc2ccc(C)cc21 (stereo not drawn) [Example 78, 3-{4-[4-(3-Chlorophenyl)-piperazin-1-yl]-butyl}-3-ethyl-5-methyl-1,3-dihydro-2H-indol-2-one] |  |  |  |  | 
